# Source: article PMC12030706, “Novel ^177Lu-Labeled [Thz^14]Bombesin(6–14) Derivatives with Low Pancreas Accumulation for Targeting Gastrin-Releasing Peptide Receptor-Expressing Cancer” (Pharmaceuticals, 2025)
# Columns and labels:
# [1] = Ex vivo biodistribution in PC-3 tumor-bearing mice; conditions: mouse; for tissue uptake at 120 h: 120 h post-injection; for tissue uptake at 24 h: 24 h post-injection; for tissue uptake at 72 h: 72 h post-injection; for tissue uptake at 4 h: 4 h post-injection
# Protocol: (§1) SPECT/CT imaging experiments were performed using an MILabs (Houten, The Netherlands) U-SPECT-II/CT scanner with a custom-made ultra-high-sensitivity big mouse collimator (2 mm pinhole size) following previously reported procedures. […] Male NOD.Cg-Rag1^tm1Mom Il2rg^tm1Wjl/SzJ (NRG) mice were used in these experiments because of their immunodeficient characteristics and excellent radiation tolerance. Mice were anaesthetized and subcutaneously implanted with 5 × 10^6 PC-3 prostate cancer cells (100 µL; 1:1 PBS/Matrigel) behind the left shoulder. SPECT/CT imaging and biodistribution studies were performed once the tumors reached a diameter of 5–8 mm, typically after approximately 4 weeks of growth.
# (§2) For ex vivo biodistribution studies, the mice were injected with ~2–6 MBq of the radioligand. […] Blocking study was conducted at 1 h post-injection via co-injection of the radioligand with 100 μg of [D-Phe^6,Leu-NHEt^13,des-Met^14]Bombesin(6–14). Organs/tissues of interested were collected, weighed, and measured using an automatic gamma counter.
# [2] = tested on: PC-3 tumor-bearing mice; experiment: Ex vivo biodistribution in PC-3 tumor-bearing mice
# Protocol: as §1, §2
# [3] = LogD7.4 measurement, shake flask method; type: physicochemical; conditions: n-octanol/DPBS pH 7.4, n = 3
# Protocol: The logD7.4 values of all the ^177Lu-labeled GRPR-targeted ligands were measured using the shake flask method as previously reported. An aliquot (~2 MBq) of the radiolabeled product was added to a mixture of n-octanol (3 mL) and DPBS (3 mL, pH 7.4), followed by 1 min vortexing and 15 min centrifugation at 5000 rpm. Samples of the n-octanol (1 mL) and buffer (1 mL) layers were collected, and the activity was counted using a gamma counter. The logD7.4 values were calculated using the following equation: logD7.4=log10[countsn−octanolphase/countsbutterphase]
# [4] = tested on: PC-3 tumor-bearing NRG mouse; experiment: Longitudinal SPECT/CT imaging in PC-3 tumor-bearing mice; type: in vivo, mice (NRG); conditions: SPECT/CT images
# Protocol: The PC-3 tumor-bearing mice were sedated (2.5% isoflurane in O2) and injected with ^177Lu-labeled ligands (15–32 MBq) through a lateral caudal tail vein. […] At each time point, a 5 min CT scan was obtained using 615 μA and 60 kV parameters for localization and attenuation, followed by 2 × 30 min static SPECT scans acquired in list mode with an energy window centered around 208 keV. The MILabs U-SPECT II reconstruction software (version 8.00) was used to reconstruct data, and the images were decay corrected to the time of injection with PMOD v 3.402 (PMOD Technologies GmbH, Fallanden, Switzerland).
# [5] = small intestine, Uptake in small intestine
# [6] = 1 h blocked (co-injected with 100 µg [D-Phe6,Leu-NHEt13,des-Met14]Bombesin(6-14))
# [7] = 1 h post-injection, 100 µg [D-Phe6,Leu-NHEt13,des-Met14]Bombesin(6–14)
smiles,measurement,setting,value
"CC(C)C[C@H](NC(=O)[C@H](Cc1cnc[nH]1)N(C)C(=O)CNC(=O)[C@@H](NC(=O)[C@H](C)NC(=O)[C@H](Cc1c[nH]c2ccccc12)NC(=O)[C@H](CCC(N)=O)NC(=O)[C@@H](Cc1ccccc1)NC(=O)CN1CCC(NC(=O)CN2CCN(CC(=O)O)CCN(CC(=O)O)CCN(CC(=O)O)CC2)CC1)C(C)(C)C)C(=O)N1CSC[C@H]1C(N)=O [[^177Lu]Lu-LW01110, metal not drawn]",tissue uptake at 120 h,"[1]; liver, Uptake in liver",0.04 ± 0.01 %ID/g
same,tissue uptake at 24 h,"[1]; lungs, Uptake in lungs",0.07 ± 0.03 %ID/g
same,tissue uptake at 1 h,"[1]; muscle, Uptake in muscle, 1 h post-injection",0.15 ± 0.02 %ID/g
same,tissue uptake at 24 h,"[1]; muscle, Uptake in muscle",0.01 %ID/g
same,tissue uptake at 72 h,"[1]; muscle, Uptake in muscle",0.01 %ID/g
same,tissue uptake at 1 h,"[1]; pancreas, 100 ug, Uptake in pancreas, 1 h blocked (co-injected with 100 µg [D-Phe6,Leu-NHEt13,des-Met14]Bombesin(6-14))",2.71 ± 0.76 %ID/g
same,tissue uptake at 1 h,"[1]; pancreas, Uptake in pancreas, 1 h post-injection",11.1 ± 1.37 %ID/g
same,tissue uptake at 4 h,"[1]; pancreas, Uptake in pancreas",4.91 ± 0.63 %ID/g
same,tissue uptake at 24 h,"[1]; pancreas, Uptake in pancreas",3.1 ± 0.48 %ID/g
same,tissue uptake at 120 h,"[1]; pancreas, Uptake in pancreas",0.34 ± 0.04 %ID/g
same,tissue uptake at 1 h,"[1]; small intestine, 100 ug, Uptake in small intestine, 1 h blocked (co-injected with 100 µg [D-Phe6,Leu-NHEt13,des-Met14]Bombesin(6-14))",0.49 ± 0.14 %ID/g
same,tissue uptake at 1 h,"[1]; small intestine, Uptake in small intestine, 1 h post-injection",2.01 ± 0.13 %ID/g
same,tissue uptake at 4 h,[1]; [5],0.56 ± 0.2 %ID/g
same,tissue uptake at 24 h,[1]; [5],0.3 ± 0.1 %ID/g
same,tissue uptake at 1 h,"[1]; spleen, 100 ug, Uptake in spleen, 1 h blocked (co-injected with 100 µg [D-Phe6,Leu-NHEt13,des-Met14]Bombesin(6-14))",0.21 ± 0.05 %ID/g
same,tissue uptake at 1 h,"[1]; spleen, Uptake in spleen, 1 h post-injection",0.28 ± 0.05 %ID/g
same,tissue uptake at 4 h,"[1]; spleen, Uptake in spleen",0.15 ± 0.03 %ID/g
same,tissue uptake at 72 h,"[1]; spleen, Uptake in spleen",0.1 ± 0.02 %ID/g
same,tissue uptake at 120 h,"[1]; spleen, Uptake in spleen",0.05 ± 0.01 %ID/g
same,tissue uptake at 1 h,"[1]; stomach, 100 ug, Uptake in stomach, 1 h blocked (co-injected with 100 µg [D-Phe6,Leu-NHEt13,des-Met14]Bombesin(6-14))",0.17 ± 0.1 %ID/g
same,tissue uptake at 1 h,"[1]; stomach, Uptake in stomach, 1 h post-injection",0.99 ± 0.21 %ID/g
same,tissue uptake at 4 h,"[1]; stomach, Uptake in stomach",0.43 ± 0.16 %ID/g
same,tissue uptake at 24 h,"[1]; stomach, Uptake in stomach",0.17 ± 0.07 %ID/g
same,tissue uptake at 72 h,"[1]; stomach, Uptake in stomach",0.08 ± 0.02 %ID/g
same,tissue uptake at 120 h,"[1]; stomach, Uptake in stomach",0.04 ± 0.02 %ID/g
same,tissue uptake at 1 h,"[1]; testes, 100 ug, Uptake in testes, 1 h blocked (co-injected with 100 µg [D-Phe6,Leu-NHEt13,des-Met14]Bombesin(6-14))",0.3 ± 0.16 %ID/g
same,tissue uptake at 24 h,"[1]; testes, Uptake in testes",0.02 ± 0.01 %ID/g
same,tissue uptake at 72 h,"[1]; testes, Uptake in testes",0.02 %ID/g
same,tissue uptake at 120 h,"[1]; testes, Uptake in testes",0.01 %ID/g
same,Uptake in lungs,[2]; [6],0.52 ± 0.08 %ID/g
same,Uptake in muscle,[2]; [6],0.14 ± 0.03 %ID/g
same,Tumor/blood uptake ratio,[2]; 1 h post-injection,15.9 ± 1.15
same,Uptake in adrenal glands,[2]; 1 h post-injection,1.22 ± 0.38 %ID/g
same,Uptake in blood,[2]; 1 h post-injection,0.69 ± 0.06 %ID/g
same,Uptake in bone,[2]; 1 h post-injection,0.14 ± 0.05 %ID/g
same,Uptake in brain,[2]; 1 h post-injection,0.03 ± 0.00 %ID/g
same,Uptake in liver,[2]; 1 h post-injection,0.40 ± 0.05 %ID/g
same,Uptake in lungs,[2]; 1 h post-injection,0.69 ± 0.12 %ID/g
same,Uptake in testes,[2]; 1 h post-injection,0.23 ± 0.04 %ID/g
same,reduction of average pancreas uptake by co-injection of blocker,[2]; [7],76%
same,reduction of average tumor uptake by co-injection of blocker,[2]; [7],73%
same,Uptake in adrenal glands,[2]; 4 h post-injection,1.02 ± 0.33 %ID/g
same,Uptake in brain,[2]; 4 h post-injection,0.03 ± 0.02 %ID/g
same,Uptake in heart,[2]; 4 h post-injection,0.06 ± 0.06 %ID/g
same,Uptake in liver,[2]; 4 h post-injection,0.23 ± 0.07 %ID/g
same,Uptake in lungs,[2]; 4 h post-injection,0.23 ± 0.11 %ID/g
same,Uptake in muscle,[2]; 4 h post-injection,0.03 ± 0.01 %ID/g
same,Uptake in testes,[2]; 4 h post-injection,0.06 ± 0.05 %ID/g
same,Uptake in heart,[2]; 24 h post-injection,0.03 ± 0.00 %ID/g
same,Uptake in spleen,[2]; 24 h post-injection,0.12 ± 0.02 %ID/g
same,Uptake in adrenal glands,[2]; 72 h post-injection,0.41 ± 0.06 %ID/g
same,Uptake in kidneys,[2]; 72 h post-injection,0.52 ± 0.10 %ID/g
same,Uptake in large intestine,[2]; 72 h post-injection,0.23 ± 0.04 %ID/g
same,Uptake in lungs,[2]; 72 h post-injection,0.06 ± 0.03 %ID/g
same,Uptake in pancreas,[2]; 72 h post-injection,1.03 ± 0.30 %ID/g
same,Uptake in small intestine,[2]; 72 h post-injection,0.09 ± 0.03 %ID/g
same,Uptake in large intestine,[2]; 120 h post-injection,0.09 ± 0.02 %ID/g
same,Uptake in lungs,[2]; 120 h post-injection,0.03 ± 0.03 %ID/g
same,Uptake in small intestine,[2]; 120 h post-injection,0.03 ± 0.00 %ID/g
same,Uptake in large intestine,"[2]; mouse, in vivo, 100 ug, 1 h",0.29 ± 0.08 %ID/g
same,uptake in PC-3 tumor xenografts cleared within 24 h,[2]; relative to 1 h uptake,37%
same,logD,[3],-2.76 ± 0.1
same,excretion pathway,[4],excreted mainly via the renal pathway
